For orientation: IC50 means the concentration that inhibits the measured activity by half. Usually inhibition stands for how much of the control response was suppressed. As usually defined, the GI50 is the concentration giving 50% growth inhibition. A low value points to greater sensitivity of the cells.

From ChEMBL document CHEMBL1777753, “Discovery of indeno[1,2-c]quinoline derivatives as inhibitors of osteoclastogenesis induced by receptor activator of NF-κB ligand (RANKL)” (J Med Chem, 2011) come the findings set out here.

The nature of data set [1]: Cytotoxicity against mouse RAW264.7 cells assessed as cell survival rate at 10 uM by MTT assay. The format is cell-based. To be noted: read-out: Survival.
Data set [2] has as its system RAW264.7. The data set is described as follows: Inhibition of RANKL-induced osteoclastogenesis in mouse RAW264.7 cells assessed as decrease in TRAP-positive multi-nucleated cells after 5 days. It is filed as functional, cell-based. As to conditions: RAW264.7, 120 h.
The test system of data set [3] is RAW264.7. In words: Inhibition of RANKL-induced osteoclastogenesis in mouse RAW264.7 cells assessed as decrease in TRAP-positive multi-nucleated cells at 10 uM after 5 days. The format is functional.
The next data set deals with SAS. The data set is described as follows: Growth inhibition against human SAS cells. The format is functional.
The nature of data set [4]: Growth inhibition against human BT-483 cells. It is filed as functional.
The next data set deals with A549. The data set is described as follows: Growth inhibition against human A549 cells. The format is functional.
For data set [5], the system named is RAW264.7. In words: Ratio of EGCG IC50 for compound IC50 for inhibition of RANKL-induced osteoclastogenesis in mouse RAW264.7 cells. It is filed as functional.
For data set [6], the system named is RAW264.7. The data set is described as follows: Inhibition of RANKL-induced osteoclastogenesis in mouse RAW264.7 cells. It is filed as functional, cell-based.

Activity calls are given as the source filed them. The rule behind the calls is not given here.

Turning to `CO/N=C1\c2cc(OC)ccc2-c2cnc3ccccc3c21`, the viability at 10 µM in data set [1] was 55.4%. Moreover, in the data set with RAW264.7 [2], the IC50 is 4.79 µM. As to `CO/N=C1\c2cc(OC)ccc2-c2c(NOC)nc3ccccc3c21`, the inhibition entry in the data set with RAW264.7 [3] was “Active”. In addition, in data set [1], the viability at 10 µM turned out to be 105%. For the same compound, in the data set on RAW264.7 [2], the IC50 is 1.58 µM. Turning to `COc1ccc2c(c1)C(=O)c1c-2c(N)nc2ccccc12`, in the data set on RAW264.7 [2], the IC50 is > 20 µM. With `C=CCn1c(=O)c2c(c3ccccc31)C(=O)c1cc(OC)ccc1-2`, in the data set with RAW264.7 [2], the IC50 is > 20 µM.

With `CNc1nc2ccccc2c2c1-c1ccc(OC)cc1C2=O`, the viability at 10 µM in data set [1] was 25.9%. Besides, the IC50 in the data set with RAW264.7 [2] amounted to 5.58 µM. Turning to `C#CCOc1ccc2c(c1)C(=O)c1c-2c(=O)n(CC#C)c2ccccc12`, the IC50 in the data set with RAW264.7 [2] is > 20 µM. Regarding `C=CCSc1nc2ccccc2c2c1-c1ccc(OC)cc1C2=O`, the viability at 10 µM in data set [1] is 106%. Further, the IC50 in the data set with RAW264.7 [2] was determined as 15.6 µM. Turning to `COc1ccc2c(c1)/C(=N\OCCN1CCCC1)c1c-2c(O)nc2ccccc12`, the values for the GI50 (in the data set on SAS; in data set [4]; with A549) were 0.84 µM, 0.79 µM and 0.89 µM, respectively. On to `O=C1c2cc(O)ccc2-c2c(O)nc3ccccc3c21`, for which, in data set [1], the viability at 10 µM came to 16.8%. Besides, in the data set with RAW264.7 [2], the IC50 is 15.3 µM. For `C=CCOc1nc2ccccc2c2c1-c1ccc(OC)cc1C2=O`, in data set [1], the viability at 10 µM was determined as 105%. Further, the IC50 in the data set with RAW264.7 [2] turned out to be 15.4 µM.

With `COc1ccc2c(c1)/C(=N\O)c1c-2cnc2ccccc12`, the IC50 in the data set on RAW264.7 [2] was > 20 µM. For the compound `COc1ccc2c(c1)C(=O)c1c-2cnc2ccccc12`, the “Ratio IC50” value in the data set on RAW264.7 [5] is 20. Also, the viability at 10 µM in data set [1] is 25.3%. Further, the IC50 with RAW264.7 [2] was 1.43 µM. As to `CC(C)Oc1ccc2c(=O)c(-c3ccccc3)coc2c1` [IPRIFLAVONE], in the data set on RAW264.7 [3] (RAW264.7, 120 h), the inhibition at 10 µM stood at 31%. Moreover, the viability at 10 µM in data set [1] came out at 102%. Regarding `CCOc1nc2ccccc2c2c1-c1ccc(OC)cc1C2=O`, the IC50 in the data set on RAW264.7 [2] is > 20 µM.

In the data set with RAW264.7 [6], `Cc1ccc(-n2c(=O)n3n(c2=O)C2C(=CC3)C(C)(C)Oc3cc(O)ccc32)cc1` (configuration not stated) displayed an IC50 of 6.97 µM. As to `COc1ccc2c(c1)/C(=N\O)c1c-2c(O)nc2ccccc12`, in data set [1], the viability at 10 µM is 85.2%. For the same compound, the IC50 in the data set with RAW264.7 [2] stood at 9.11 µM. In the case of `C=CCOc1ccc2c(c1)C(=O)c1c-2c(=O)n(CC=C)c2ccccc12`, the IC50 in the data set with RAW264.7 [2] was > 20 µM. Consider `C#CCOc1ccc2c(c1)C(=O)c1c-2c(OCC#C)nc2ccccc12`, for which the viability at 10 µM in data set [1] came out at 30.9%. Further, in the data set on RAW264.7 [2], the IC50 was found to be 9.46 µM.

With `COc1ccc2c(c1)C(=O)c1c-2c(SC)nc2ccccc12`, in the data set on RAW264.7 [3], the inhibition result was “Active”. Further, in data set [1], the viability at 10 µM was determined as 86.6%. Besides, the IC50 with RAW264.7 [2] was determined as 2.58 µM. For the compound `COc1ccc2c(c1)C(=O)c1c-2c(S)nc2ccccc12`, the viability at 10 µM in data set [1] is 63%. Besides, in the data set on RAW264.7 [2], the IC50 stood at 13.8 µM.

As for `C=CCOc1ccc2c(c1)C(=O)c1c-2c(OCC=C)nc2ccccc12`, the inhibition result in the data set with RAW264.7 [3] was “Active”. Further, the viability at 10 µM in data set [1] was 75.1%. Besides, in the data set on RAW264.7 [2], the IC50 was 5.7 µM. For the compound `CO/N=C1\c2cc(OC)ccc2-c2c(OC)nc3ccccc3c21`, in data set [1], the viability at 10 µM came to 62.3%. Moreover, the IC50 in the data set on RAW264.7 [2] turned out to be 7.97 µM. On to `O=C(O[C@@H]1Cc2c(O)cc(O)cc2O[C@@H]1c1cc(O)c(O)c(O)c1)c1cc(O)c(O)c(O)c1` [EPIGALOCATECHIN GALLATE], for which, in the data set on RAW264.7 [2], the IC50 was 29.8 µM. With `COc1ccc2c(c1)C(=O)c1c-2c(OC)nc2ccccc12`, the inhibition result in the data set on RAW264.7 [3] is “Active”. The “Ratio IC50” value in the data set with RAW264.7 [5] is 15. Also, in data set [1], the viability at 10 µM worked out at 100%. Moreover, in the data set on RAW264.7 [2], the IC50 turned out to be 2 µM. Turning to `COc1ccc2c(c1)C(=O)c1c-2c(O)nc2ccccc12`, the IC50 with RAW264.7 [2] is > 20 µM.

Regarding `COc1ccc2c(c1)C(=O)c1c-2c(=O)n(C)c2ccccc12`, the viability at 10 µM in data set [1] stood at 66.6%. For the same compound, the IC50 with RAW264.7 [2] came to 11.5 µM. Take `COc1ccc2c(c1)/C(=N\O)c1c-2c(OC)nc2ccccc12`: in data set [1], the viability at 10 µM came to 46.9%. Also, in the data set with RAW264.7 [2], the IC50 is 8.44 µM.
